The values that follow come from article PMC7933930, “Development of a small molecule that corrects misfolding and increases secretion of Z α1‐antitrypsin” (EMBO Molecular Medicine, 2021).

Like-named read-outs stand apart in the source and are kept apart here. Some results are limits rather than exact numbers.

Series [1] in a line: Oral pharmacokinetics in rat. It is filed as in vivo. To be noted: Han Wistar, whole blood, ≤ 3 mg/kg, read-out: F (oral bioavailability). The protocol:
[…] Blood samples were taken into EDTA, diluted and mixed with acetonitrile containing internal standard (alprazolam) and centrifuged to precipitate proteins. Aliquots of the resultant supernatant were analysed by LC‐MS/MS, and concentrations of GSK716 in blood were determined. Non‐compartmental pharmacokinetic analysis (NCA) was carried out using Phoenix WinNonLin 6.3 (Certara L.P.). Free drug was measured in Z α1‐antitrypsin transgenic mice by dialysing tissue samples in rapid equilibrium dialysis cassettes.

The next series has as its target NaV1.5 (Homo sapiens, UniProt Q14524). The series is described as follows: Off‐target panel: NaV1.5 (IonWorks). It is filed as cell-based. The protocol:
(§1) GSK716 selectivity and PK properties were profiled in order to investigate the suitability of GSK716 for progression into in vivo studies and the potential for taking it forward as a clinical candidate for testing in humans. Since GSK716 results in loss of inhibitory activity of α1‐antitrypsin, the effect of the compound was assessed on other closely related serpins. […] Furthermore, there were no off‐target effects in a panel of assays considered predictive of known safety liabilities that precluded further development of GSK716 (Table EV1).

The next series addresses Adrenergic α2C (Homo sapiens, UniProt P18825). The series is described as follows: Off‐target panel: Adrenergic α2C (DRX). It is filed as cell-based. The protocol: as §1
The test system of the next series is P-gp (MDR1). The series is described as follows: Permeability in MDR1‐MDCK cells with pgp inhibitor. To be noted: dog. In kind it is in vitro ADME. The protocol: Permeability in MDR1‐MDCK cells in the presence of pgp inhibitor GF120918 was high at 248 and 240 nm/s for the apical to basal and basal to apical directions, respectively (N53531‐23 for DI).
MDR1‐MDCK cells were used between passage numbers 6–30. Cells were seeded onto Millipore Multiscreen Transwell plates at 3.4 × 10^5 cells/cm^2. The cells were cultured in DMEM and media was changed on day 3. On day 4 the permeability study was performed. Cell culture and assay incubations were carried out at 37°C in an atmosphere of 5% v/v CO2 with a relative humidity of 95%. On the day of the assay, the monolayers were prepared by rinsing both apical and basolateral surfaces twice with Hanks Balanced Salt Solution (HBSS) at the desired pH warmed to 37°C. Cells were then incubated with HBSS at the desired pH in both apical and basolateral compartments for 40 min to stabilise physiological parameters. Where applicable, a P‐gp inhibitor (elacridar, 2 µM) was included on both sides of the monolayer for the equilibration period. For assessment of apical‐basolateral permeability, HBSS was removed from the apical compartment and replaced with test compound dosing solution. The apical compartment insert was then placed into a companion plate containing fresh buffer (containing 0.5% v/v DMSO or, where applicable, a P‐gp inhibitor, maintaining a 0.5% v/v DMSO concentration). […]

The target in another series is Glucocorticoid Receptor (Homo sapiens, UniProt P04150). The series is described as follows: Off‐target panel: Glucocorticoid Receptor. In kind it is cell-based. The conditions noted are these: Agonist, read-out: Mean (PXC50). The protocol:
as §1

Another series addresses KCNQ1/minK (Homo sapiens, UniProt P51787). The series is described as follows: cell-based. The protocol: as §1
The target in another series is NK1 (TACR1) (Homo sapiens, UniProt P25103). The series is described as follows: Off‐target panel: NK1 (TACR1) (DRX). The conditions noted are these: Antagonist, read-out: Mean (PXC50). It is filed as cell-based. The protocol:
as §1

The next series deals with PI3Kg (Homo sapiens, UniProt P48736). The series is described as follows: Off‐target panel: PI3Kg. It is filed as biochemical. The conditions noted are these: Inhibition, read-out: Mean (PXC50). The protocol: as §1
Chain of PI3Kg (P48736 whole entry): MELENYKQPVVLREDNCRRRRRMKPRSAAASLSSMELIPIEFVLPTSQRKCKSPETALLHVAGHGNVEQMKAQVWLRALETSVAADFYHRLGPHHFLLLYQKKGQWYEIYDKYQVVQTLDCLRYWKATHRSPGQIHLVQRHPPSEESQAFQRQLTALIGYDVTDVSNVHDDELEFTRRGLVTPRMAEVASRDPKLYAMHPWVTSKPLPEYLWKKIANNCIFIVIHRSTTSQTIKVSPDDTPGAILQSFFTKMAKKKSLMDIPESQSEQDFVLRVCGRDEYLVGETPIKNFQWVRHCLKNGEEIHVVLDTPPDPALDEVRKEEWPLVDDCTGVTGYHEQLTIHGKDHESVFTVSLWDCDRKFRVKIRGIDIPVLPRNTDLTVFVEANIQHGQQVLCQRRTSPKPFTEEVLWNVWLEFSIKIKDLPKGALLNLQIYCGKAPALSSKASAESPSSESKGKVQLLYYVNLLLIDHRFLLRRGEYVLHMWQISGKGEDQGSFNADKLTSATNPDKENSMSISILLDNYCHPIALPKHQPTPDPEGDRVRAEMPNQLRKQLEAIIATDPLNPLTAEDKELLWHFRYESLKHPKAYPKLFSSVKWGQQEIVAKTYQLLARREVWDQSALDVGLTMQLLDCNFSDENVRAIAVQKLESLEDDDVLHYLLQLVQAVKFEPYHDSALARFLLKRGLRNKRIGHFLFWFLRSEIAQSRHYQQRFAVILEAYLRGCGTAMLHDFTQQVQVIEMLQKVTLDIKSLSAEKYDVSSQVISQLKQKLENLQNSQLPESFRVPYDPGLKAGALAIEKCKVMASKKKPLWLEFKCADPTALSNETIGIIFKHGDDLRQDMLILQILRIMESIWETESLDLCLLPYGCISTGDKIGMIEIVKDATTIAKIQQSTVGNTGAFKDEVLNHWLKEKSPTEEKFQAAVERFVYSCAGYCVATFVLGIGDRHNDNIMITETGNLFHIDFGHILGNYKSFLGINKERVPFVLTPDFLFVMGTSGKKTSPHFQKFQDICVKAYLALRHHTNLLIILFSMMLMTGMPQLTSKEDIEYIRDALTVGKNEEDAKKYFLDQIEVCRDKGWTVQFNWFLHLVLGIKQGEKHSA

Chain of Adrenergic α2C (P18825 whole entry): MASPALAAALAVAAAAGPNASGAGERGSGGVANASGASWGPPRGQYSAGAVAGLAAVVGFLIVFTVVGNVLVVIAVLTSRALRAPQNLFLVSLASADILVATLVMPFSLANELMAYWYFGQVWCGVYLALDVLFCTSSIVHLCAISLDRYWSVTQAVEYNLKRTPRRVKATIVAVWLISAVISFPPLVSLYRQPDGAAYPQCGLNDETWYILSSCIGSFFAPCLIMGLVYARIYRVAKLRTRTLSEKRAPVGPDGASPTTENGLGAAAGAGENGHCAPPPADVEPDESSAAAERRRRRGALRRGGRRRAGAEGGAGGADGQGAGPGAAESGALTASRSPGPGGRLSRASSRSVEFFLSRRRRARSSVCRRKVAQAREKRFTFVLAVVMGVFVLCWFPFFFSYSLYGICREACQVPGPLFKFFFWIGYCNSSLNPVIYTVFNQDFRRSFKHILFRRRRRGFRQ
Chain of NK1 (TACR1) (P25103 whole entry, species assumed): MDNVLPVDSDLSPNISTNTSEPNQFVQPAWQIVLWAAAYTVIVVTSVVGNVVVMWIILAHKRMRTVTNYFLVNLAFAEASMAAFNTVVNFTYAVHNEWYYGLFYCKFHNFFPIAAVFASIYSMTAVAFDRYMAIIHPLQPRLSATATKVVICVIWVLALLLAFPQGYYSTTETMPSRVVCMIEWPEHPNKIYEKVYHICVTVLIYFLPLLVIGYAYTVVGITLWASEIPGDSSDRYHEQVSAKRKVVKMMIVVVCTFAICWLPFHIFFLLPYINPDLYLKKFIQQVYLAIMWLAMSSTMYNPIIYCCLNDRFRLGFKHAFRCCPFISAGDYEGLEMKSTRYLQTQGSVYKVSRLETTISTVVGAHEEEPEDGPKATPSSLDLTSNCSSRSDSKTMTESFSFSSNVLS
Chain of NaV1.5 (Q14524 whole entry): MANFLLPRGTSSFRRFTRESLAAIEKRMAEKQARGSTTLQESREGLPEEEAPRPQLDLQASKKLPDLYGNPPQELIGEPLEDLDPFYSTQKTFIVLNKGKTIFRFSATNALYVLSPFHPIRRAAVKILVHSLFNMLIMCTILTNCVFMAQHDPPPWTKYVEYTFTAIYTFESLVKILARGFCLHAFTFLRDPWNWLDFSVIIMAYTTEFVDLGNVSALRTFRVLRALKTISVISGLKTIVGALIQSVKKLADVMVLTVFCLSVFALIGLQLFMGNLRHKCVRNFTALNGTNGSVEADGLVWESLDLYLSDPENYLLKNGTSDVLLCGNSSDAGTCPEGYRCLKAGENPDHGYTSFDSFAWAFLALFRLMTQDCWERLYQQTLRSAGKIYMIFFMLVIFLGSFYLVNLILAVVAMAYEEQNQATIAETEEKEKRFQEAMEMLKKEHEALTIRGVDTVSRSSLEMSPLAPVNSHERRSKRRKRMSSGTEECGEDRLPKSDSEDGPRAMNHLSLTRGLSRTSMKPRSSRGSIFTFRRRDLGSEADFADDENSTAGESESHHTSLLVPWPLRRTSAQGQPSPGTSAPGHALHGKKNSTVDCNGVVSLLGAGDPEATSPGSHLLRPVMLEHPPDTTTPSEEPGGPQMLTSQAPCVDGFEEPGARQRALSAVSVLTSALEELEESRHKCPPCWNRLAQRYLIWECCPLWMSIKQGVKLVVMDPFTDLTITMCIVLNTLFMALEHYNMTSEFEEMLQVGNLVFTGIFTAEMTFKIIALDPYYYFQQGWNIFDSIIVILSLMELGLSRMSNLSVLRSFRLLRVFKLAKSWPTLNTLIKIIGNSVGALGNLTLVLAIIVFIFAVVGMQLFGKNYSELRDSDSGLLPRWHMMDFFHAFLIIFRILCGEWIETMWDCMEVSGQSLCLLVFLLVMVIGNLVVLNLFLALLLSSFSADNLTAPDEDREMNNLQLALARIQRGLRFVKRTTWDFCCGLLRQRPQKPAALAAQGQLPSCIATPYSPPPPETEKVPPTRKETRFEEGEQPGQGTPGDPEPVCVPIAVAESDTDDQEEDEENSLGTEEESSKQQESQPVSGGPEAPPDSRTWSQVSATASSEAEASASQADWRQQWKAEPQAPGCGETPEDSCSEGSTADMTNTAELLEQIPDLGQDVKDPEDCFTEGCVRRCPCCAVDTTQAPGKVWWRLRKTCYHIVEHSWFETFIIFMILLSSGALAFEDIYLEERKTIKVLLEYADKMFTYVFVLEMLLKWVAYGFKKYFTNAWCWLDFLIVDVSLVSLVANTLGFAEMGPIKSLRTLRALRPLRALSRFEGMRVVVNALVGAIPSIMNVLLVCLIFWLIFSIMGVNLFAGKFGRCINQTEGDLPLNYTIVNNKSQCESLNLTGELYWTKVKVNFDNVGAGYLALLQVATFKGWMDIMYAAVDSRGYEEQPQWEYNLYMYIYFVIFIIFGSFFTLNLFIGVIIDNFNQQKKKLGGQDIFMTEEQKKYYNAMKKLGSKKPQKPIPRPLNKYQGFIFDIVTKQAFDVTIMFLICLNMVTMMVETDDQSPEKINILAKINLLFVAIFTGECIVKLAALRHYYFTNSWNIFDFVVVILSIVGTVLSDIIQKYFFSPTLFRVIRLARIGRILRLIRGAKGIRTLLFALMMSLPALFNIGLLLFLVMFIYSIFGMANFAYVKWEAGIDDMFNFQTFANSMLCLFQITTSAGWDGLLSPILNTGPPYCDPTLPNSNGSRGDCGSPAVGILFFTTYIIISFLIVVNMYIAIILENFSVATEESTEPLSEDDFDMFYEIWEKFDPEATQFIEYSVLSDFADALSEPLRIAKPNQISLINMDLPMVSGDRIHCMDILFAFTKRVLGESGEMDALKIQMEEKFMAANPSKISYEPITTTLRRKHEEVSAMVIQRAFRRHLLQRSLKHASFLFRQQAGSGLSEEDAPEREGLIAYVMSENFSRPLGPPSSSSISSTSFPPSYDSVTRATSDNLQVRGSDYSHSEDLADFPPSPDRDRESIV
Chain of Glucocorticoid Receptor (P04150 whole entry, species assumed): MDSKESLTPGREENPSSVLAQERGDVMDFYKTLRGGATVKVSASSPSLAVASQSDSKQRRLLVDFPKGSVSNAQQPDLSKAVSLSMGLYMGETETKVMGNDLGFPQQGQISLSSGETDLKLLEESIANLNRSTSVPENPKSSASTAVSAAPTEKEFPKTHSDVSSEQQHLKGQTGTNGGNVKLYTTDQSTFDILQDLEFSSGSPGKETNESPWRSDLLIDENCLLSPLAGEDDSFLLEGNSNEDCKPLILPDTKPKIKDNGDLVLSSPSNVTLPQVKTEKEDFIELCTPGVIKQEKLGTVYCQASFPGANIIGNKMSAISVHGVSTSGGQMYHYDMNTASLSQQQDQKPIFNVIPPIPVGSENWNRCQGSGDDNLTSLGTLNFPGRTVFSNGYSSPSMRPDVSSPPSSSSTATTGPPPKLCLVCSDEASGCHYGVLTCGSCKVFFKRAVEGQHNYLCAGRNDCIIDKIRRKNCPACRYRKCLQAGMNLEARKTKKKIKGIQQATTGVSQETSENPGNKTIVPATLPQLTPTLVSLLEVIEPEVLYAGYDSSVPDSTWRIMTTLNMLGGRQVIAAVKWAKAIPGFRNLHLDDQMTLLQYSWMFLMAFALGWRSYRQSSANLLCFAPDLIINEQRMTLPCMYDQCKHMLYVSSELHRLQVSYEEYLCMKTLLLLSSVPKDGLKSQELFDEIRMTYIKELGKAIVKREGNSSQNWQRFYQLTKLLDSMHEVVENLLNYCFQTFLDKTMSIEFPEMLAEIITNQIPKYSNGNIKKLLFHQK

Take `CCC[C@@H](NC(=O)c1cccc2c1CC(=O)N2)[C@@H](O)c1cccc(F)c1C` [GSK716]: the bioavailability (commonly the share of a dose that reaches the circulation, judged against a reference dose that is usually intravenous) in series [1] is 48%. The IC50 against NaV1.5 is 79.4 µM; at KCNQ1/minK it was above 25.1 µM; on NK1 (TACR1), above 25.1 µM; on PI3Kg, above 31.6 µM. The EC50 on Adrenergic α2C and on Glucocorticoid Receptor was above 100 µM each time. Further, the Papp at 60 min in the series with P-gp (MDR1) (with pgp inhibitor GF120918, read-out: permeability, apical to basal) was determined as 24.8 ×10⁻⁶ cm/s; in the series with P-gp (MDR1) (with pgp inhibitor GF120918, read-out: permeability, basal to apical), 24 ×10⁻⁶ cm/s.
